Measurements from PubChem BioAssay AID488890 (Southern Research Specialized Biocontainment Screening …, 2010).
Inconclusive results are not listed. The source made the active and inactive calls. No rule for the calls is given here.

Tested on: Mycobacterium tuberculosis non-replicating, growth inhibition
Test: growth inhibition of non-replicating M. tuberculosis (AID 488890)

Row | Structure (SMILES) | IC50
1 | Cc1[nH]c2ccccc2c1C(=O)COC(=O)c1ccc([N+](=O)[O-])s1 | 0.65 µM
2 | O=C(CCSc1ccc(Cl)cc1)Nc1cccnc1 | > 50 µM (inactive)
3 | CC(C)(C)c1ccc(OCCC(=O)OCC(=O)NC2CCCCC2)cc1 | 9.3 µM
4 | CC1(C)OC(c2ccccc2)=C/C(=C\C=N\NC(=O)c2ccncc2)O1 | 1.75 µM
5 | CNC(=O)COC(=O)c1ccc(-c2nc3ccccc3s2)s1 | 4.97 µM
6 | S=c1[nH]c2ccccc2o1 | 27.5 µM (inactive)
7 | CCC(C)(C)c1ccc(OCC(=O)Nc2ccncc2)cc1 | 4.38 µM
8 | CCOc1cc(CNC(C)(C)CO)cc(Br)c1OCc1ccc(Cl)cc1Cl | 10.8 µM (inactive)
9 | O=C(NCCCN1CCOCC1)c1ccc(CSc2ccc(Cl)cc2)cc1 | 29 µM (inactive)
10 | CCOCC(=O)Nc1nc2ccc(C)cc2s1 | 2.06 µM
11 | CCN(CC)c1ccc2cc(C(=O)NCc3ccc(F)cc3)c(=N)oc2c1 | 1.62 µM
12 | O=[N+]([O-])c1ccc(Nc2ccccc2O)c2nonc12 | 5.94 µM
13 | Cc1ccc(NC(=O)COc2ccccc2CNC(C)(C)CC(C)(C)C)cc1 | 16.5 µM (inactive)
14 | O=C(COC(=O)CCC(=O)c1ccc(F)cc1)Nc1ccccc1 | 11.1 µM (inactive)
15 | CN(C)CCCNc1cc(C(C)(C)C)nc2c(-c3ccccc3)cnn12 | 18.6 µM (inactive)
16 | COC(=O)c1ccc(CSc2nnc(-c3ccncc3)o2)o1 | 7.22 µM
17 | Cc1cccc(C)c1N1C(=O)CC(N2CCSCC2)C1=O (stereo not drawn) | 3.44 µM
18 | COc1ccc(C)c2sc(NC(=O)CCS(=O)(=O)c3ccccc3)nc12 | 6 µM
19 | COc1cccc(NC(=O)COC(=O)Cc2ccc(Br)cc2)c1 | 12.7 µM (inactive)
20 | Cc1cc(C)n2[nH]c(=O)c(N=Nc3cccc(C(F)(F)F)c3)c2n1 | 4.14 µM
21 | Cc1ccccc1NC(=O)c1nc[nH]c1C(=O)NCc1ccccc1 | 23.7 µM (inactive)

Row | Structure (SMILES) | IC50
22 | COc1ccc(-c2nnn(Cc3ccccc3)n2)cc1 | 12.4 µM (inactive)
23 | O=C(Nc1ncc(Cc2ccccc2Cl)s1)C1=NCCN1 | 4.18 µM
24 | COc1ccc(NC(=O)c2ccc(COCC(F)(F)C(F)F)cc2)cc1 | 12.6 µM (inactive)
25 | C/C(=N/NC(=O)c1cccc(C)c1)c1c(O)cc(C)oc1=O | 9.19 µM
26 | O=C(NC1CC2CCC1C2)C1COc2ccccc2O1 (stereo not drawn) | < 0.1 µM
27 | CC(/C=C/c1ccco1)=N/NC(=O)c1ccc(C)nc1 | 13.4 µM (inactive)
28 | COc1cccc2cc(-c3nc4ccccc4o3)c(=O)oc12 | 7.31 µM
29 | O=C1c2ccccc2-n2c1nc1ccccc1c2=O | 2.8 µM
30 | O=c1ccn(-c2ccccc2)[nH]1 | 7.52 µM
31 | Cc1ccc(NC(=O)C2COc3ccccc3O2)nc1 (stereo not drawn) | 6.26 µM
32 | COc1ccccc1OCC(=O)N/N=C/C=C/c1ccc([N+](=O)[O-])o1 | 2.78 µM
33 | CN(C)/C=C1/C(=O)N(c2ccc([N+](=O)[O-])cc2)N=C1c1ccccc1 | 17.7 µM (inactive)
34 | Cc1cc(C)n(CC(=O)N/N=C/c2ccc([N+](=O)[O-])s2)n1 | 24.4 µM (inactive)
35 | O=C(OCC(=O)N1CCN(c2ccccc2)CC1)c1ccc(Cl)cc1[N+](=O)[O-] | 14.4 µM (inactive)
36 | O=C(NN=C1C2CC3CC1CC(Cl)(C3)C2)c1cccs1 | 23.7 µM (inactive)
37 | COc1ccc(-c2noc(CCC(=O)Nc3cccc(C)c3)n2)cc1 | 11.5 µM (inactive)
38 | O=c1c2ccccc2sn1-c1ccccc1 | 6.8 µM
39 | CCOC(=O)Cc1csc(NC(=O)c2c(O)c3ccccc3n(CCC(C)C)c2=O)n1 | 1.77 µM
40 | Cc1ccc(-n2cc(CNCCn3nc(C)cc3C)c(-c3ccc(F)cc3)n2)cc1 | 6.05 µM
41 | Cc1ccccc1NC(=O)C1COc2ccccc2O1 (stereo not drawn) | 9.25 µM
42 | COC(=O)N/N=C/c1ccc([N+](=O)[O-])s1 | 17 µM (inactive)

Row | Structure (SMILES) | IC50
43 | CN(CCCCOc1ccc(F)cc1)Cc1ccccc1 | 22.9 µM (inactive)
44 | CC(C)(C)NC(=O)c1ccc(NC(=O)c2ccccc2-c2ccccc2C(=O)O)cc1 | 3.71 µM
45 | Cc1ccc(N=N/C(=C\O)C(=O)c2ccncc2)cc1 | 10.1 µM (inactive)
46 | C=CCc1ccc2oc(C(=O)OCC)cc(=O)c2c1O | 1.26 µM
47 | Cc1nnc(N/N=C/c2ccc(-c3ccccc3F)o2)n1N | 10.6 µM (inactive)
48 | O=C(COc1ccc([N+](=O)[O-])cc1)NNC(=O)c1cccs1 | 28.1 µM (inactive)
49 | O=S1(=O)C=C(Sc2nnc(-c3ccccc3)o2)c2ccccc21 | < 0.1 µM
50 | CCc1nnc(N/N=C/c2c(F)cccc2Cl)n1N | 15.3 µM (inactive)
51 | CCCCCCOc1ccc(C(=O)O)cc1C#N | 42.7 µM (inactive)
52 | Cc1noc2ncnc(Sc3ccccc3Cl)c12 | 16.4 µM (inactive)
53 | Cc1cc(C)n2nc(S(=O)(=O)Nc3c(Cl)cccc3Cl)nc2n1 | 3.15 µM
54 | Cc1cc2ncn(/N=C/c3ccc([N+](=O)[O-])s3)c2cc1C | 1.09 µM
55 | CCOc1ccc(C(=O)Nc2nnc(C3=COCCO3)o2)cc1 | 22.2 µM (inactive)
56 | Cc1nnc(SCCC(=O)Nc2ccc(Cl)cc2)o1 | 39.2 µM (inactive)
57 | Cc1cc(Br)ccc1OCCCCN1CCC(C)CC1 | 9.63 µM
58 | CN1CCN(c2ccc(NC(=O)c3ccc(-c4ccc(Br)cc4)o3)cc2)CC1 | 4.06 µM
59 | O=Cc1c(NCc2ccco2)nc2ccccn2c1=O | 4.93 µM
60 | Clc1ccc(OCCOCCN2CCc3ccccc3C2)c(Cl)c1 | 11.2 µM (inactive)
61 | COC(=O)COc1ccc(-c2nn(C)c(=O)c3ccccc23)cc1 | 4.25 µM
62 | CN1C(=O)NC(=O)/C(=C/c2ccc([N+](=O)[O-])s2)C1=O | 10.3 µM (inactive)
63 | CC1=NNC(=O)/C1=C\c1cn(-c2ccccc2)nc1-c1cccs1 | 4.96 µM

Row | Structure (SMILES) | IC50
64 | O=C(Nc1nnc(-c2ccc(Cl)cc2)o1)c1cccc(N2C(=O)CCC2=O)c1 | 22.3 µM (inactive)
65 | O=C(O)CCCCCN1C(=O)/C(=C\c2ccncc2)SC1=S | 11.2 µM (inactive)
66 | Cc1ccc(-c2nnc(NC3CCCC3)s2)cc1 | 23.8 µM (inactive)
67 | COc1cccc(OCCNC(=O)c2cc([N+](=O)[O-])cc([N+](=O)[O-])c2)c1 | 0.49 µM
68 | O=C(COC(=O)c1ccc(Br)o1)NC1CCCCC1 | 9.79 µM
69 | Cc1c(Cl)cccc1-c1ccc(CNCc2ccccn2)o1 | 4.58 µM
70 | COC12C(COC(N)=O)C3=C(C(=O)C(C)=C(N)C3=O)N1CC1C2N1C (stereo not drawn) | 0.12 µM
71 | COc1cc(CNC(C)(C)CO)cc(Br)c1OCc1ccc(Cl)cc1Cl | 10 µM (inactive)
72 | CCC/C(=N\NC(=O)c1ccco1)c1ccc(Cl)s1 | 9.41 µM
73 | Cc1ccccc1OCCCCc1c(C)n[nH]c1C | 13.1 µM (inactive)
74 | CCC(=O)Nc1nc2ccccc2n1Cc1ccc(C)cc1 | 20.5 µM (inactive)
75 | O=c1c(=Nc2ccccc2O)c(=O)c2ccccc12 | 2.73 µM
76 | CCCCOc1ccc(CSCCN)cc1Cl | 27.8 µM (inactive)
77 | Cc1cc(Cl)ccc1OCCCC(=O)NO | 14.6 µM (inactive)
78 | CCOC(=O)c1cc(-c2cccc([N+](=O)[O-])c2)on1 | 0.64 µM
79 | O=C1N=c2ccccc2=C1c1c(O)n(-c2cccc(F)c2)[nH]c1=O | 6.91 µM
80 | CC(C)Cn1c(N)c(C(=O)COC(=O)c2cnc(Cl)c(Cl)c2)c(=O)n(C)c1=O | 12 µM (inactive)
81 | O=C(OCc1ccc(Cl)c(Cl)c1)c1ccccn1 | 2.27 µM
82 | Cc1nc(Cl)nc(N(C)c2ccccc2)c1[N+](=O)[O-] | 9.3 µM
83 | O=[N+]([O-])c1cc([N+](=O)[O-])c2cc3ccccc3nc2c1 | < 0.1 µM
